Among the data in ChEMBL document CHEMBL1128612, “Synthesis and biological activity of enantiomers of a conformationally restricted muscarone analog” (Bioorg Med Chem Lett, 1995) are Ki and KA values, retold here.

In assay [1] the target is T1, Muscarinic acetylcholine receptor M1 (Rattus norvegicus, UniProt P08482).
T1 sequence (P08482 whole entry): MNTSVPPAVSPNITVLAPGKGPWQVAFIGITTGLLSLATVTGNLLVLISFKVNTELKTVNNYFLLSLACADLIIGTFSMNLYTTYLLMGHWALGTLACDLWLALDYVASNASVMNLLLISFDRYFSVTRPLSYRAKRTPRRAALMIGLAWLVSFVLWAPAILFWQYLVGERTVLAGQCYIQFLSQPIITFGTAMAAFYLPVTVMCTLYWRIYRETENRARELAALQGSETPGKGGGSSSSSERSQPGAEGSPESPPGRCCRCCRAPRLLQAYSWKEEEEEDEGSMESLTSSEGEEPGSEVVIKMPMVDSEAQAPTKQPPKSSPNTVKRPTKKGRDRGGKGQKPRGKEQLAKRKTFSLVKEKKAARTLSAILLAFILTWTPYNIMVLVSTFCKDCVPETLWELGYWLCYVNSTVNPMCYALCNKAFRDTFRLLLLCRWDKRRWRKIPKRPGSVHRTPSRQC
Description: Compound was evaluated for its affinity towards Muscarinic acetylcholine receptor M1, using [3H]- pirenzepine, a radioligand displacement assay in rat hippocampal membranes

Assay [2] concerns the target Muscarinic acetylcholine receptor M3 (Cavia porcellus) (UniProt Q8VH26).
Description: Compound was evaluated for dissociation constant (KA), determined from potency against Muscarinic acetylcholine receptor M3 in an isolated tissue assay (guinea pig trachea)
Assay [3] deals with T2, Muscarinic acetylcholine receptor M2 (Rattus norvegicus, UniProt P10980).
T2 sequence (P10980 whole entry): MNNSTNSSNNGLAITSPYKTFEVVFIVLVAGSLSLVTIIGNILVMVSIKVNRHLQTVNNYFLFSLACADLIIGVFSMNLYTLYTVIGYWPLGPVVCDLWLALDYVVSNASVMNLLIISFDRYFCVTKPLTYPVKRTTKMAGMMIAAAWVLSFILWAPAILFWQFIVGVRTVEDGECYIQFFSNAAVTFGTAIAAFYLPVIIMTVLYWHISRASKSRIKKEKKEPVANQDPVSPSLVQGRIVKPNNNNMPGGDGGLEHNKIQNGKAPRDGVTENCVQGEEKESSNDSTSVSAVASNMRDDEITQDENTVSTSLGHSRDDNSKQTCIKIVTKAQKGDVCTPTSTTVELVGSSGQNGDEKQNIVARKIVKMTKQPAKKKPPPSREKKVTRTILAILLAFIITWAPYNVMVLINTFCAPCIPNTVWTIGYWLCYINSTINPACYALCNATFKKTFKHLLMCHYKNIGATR
Description: Compound was evaluated for its affinity towards Muscarinic acetylcholine receptor M2, using [3H]- N-methyl-scopolamine, a radioligand displacement assay in rat heart membranes

Chain of Muscarinic acetylcholine receptor M3 (Cavia porcellus) (Q8VH26 1-587): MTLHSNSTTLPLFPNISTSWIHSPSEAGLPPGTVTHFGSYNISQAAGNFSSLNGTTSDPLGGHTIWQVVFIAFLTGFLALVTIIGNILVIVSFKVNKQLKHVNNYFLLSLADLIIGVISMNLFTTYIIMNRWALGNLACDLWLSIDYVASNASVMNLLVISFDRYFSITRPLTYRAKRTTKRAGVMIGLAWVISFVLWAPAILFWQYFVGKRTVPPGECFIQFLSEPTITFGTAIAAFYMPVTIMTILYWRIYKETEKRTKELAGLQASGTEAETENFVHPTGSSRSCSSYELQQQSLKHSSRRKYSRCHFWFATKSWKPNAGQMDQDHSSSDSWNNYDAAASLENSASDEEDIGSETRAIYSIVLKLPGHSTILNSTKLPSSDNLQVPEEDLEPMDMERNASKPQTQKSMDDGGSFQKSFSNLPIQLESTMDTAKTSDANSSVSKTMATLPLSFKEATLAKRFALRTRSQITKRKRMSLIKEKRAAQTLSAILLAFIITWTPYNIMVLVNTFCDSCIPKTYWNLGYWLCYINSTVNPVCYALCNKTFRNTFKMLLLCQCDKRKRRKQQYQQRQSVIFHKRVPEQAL

As a reminder, the Ki is a measure of affinity in units of concentration, obtained from inhibition or displacement. Higher therefore signals a looser hold on the target. For `CC1OC2(CCN(C)CC2)CC1=O` (centres undefined), the results for the inhibition constant Ki in assay [1] and in assay [3] were 3.8 µM and 5.3 µM, respectively. The molecule also gave a KA in assay [2] of 0.7 µM.
Taken in the same sequence, the figures for `C[C@@H]1OC2(CCN(C)CC2)CC1=O` were 4.1 µM, 2.5 µM and 0.28 µM.
For `C[C@H]1OC2(CCN(C)CC2)CC1=O`, the inhibitory constant (Ki) in assay [1] was 26 µM; in assay [3] it was 37 µM. The KA in assay [2] was 4.5 µM.
